Values of other authors, collected in US20220202698A1, “EXTENDED RELEASE PHARMACEUTICAL COMPOSITIONS OF RIOCIGUAT” (Jubilant Pharma Holdings Inc., priority 2020, published 2022).

Columns and labels:
[1] = BCS classification
[2] = human, in vivo

Solubility [1]: low solubility
Elimination half-life [2]: about 12 hours
SMILES: COC(=O)N(C)c1c(N)nc(-c2nn(Cc3ccccc3F)c3ncccc23)nc1N [Riociguat, methyl 4,6-diamino-2-[1-(2-fluorobenzyl)-1H-pyrazolo[3,4-b]pyridin-3-yl]-5-pyrimidinyl(methyl)carbamate]
